Values after ≈ are worked out from the molar mass of the structure shown. Values joined by “and” are separate entries in the source; they are usually repeats but may differ in a detail not shown here. Equal values may be shown once. Read-outs that look alike come from different tables or passages of the source. Marks after values point to notes of the source that are not given here. Blank lines part the entries; values can stand above or below the molecule they belong to.
Key:
Bcl-2 = Bcl-2 level (ELISA) in treated cells; assay type: cell-based, human
EGFR = EGFR (Homo sapiens, UniProt P00533); assay: In vitro EGFR enzyme inhibition assay (ELISA); details: for inhibition at 10 pg/mL / inhibition at 0.0001 µg/mL / inhibition at 0.001 µg/mL / inhibition at 0.01 µg/mL: read-out: EGFR %inh
MCF-7 [1] = assay: MTT cytotoxicity assay, MCF-7; details: for IC50: Homo sapiens
in vitro = details: human, MCF-10A cells (nonmalignant breast)
MCF-7 [2] = assay: DNA flow cytometric cell cycle analysis, MCF-7; assay type: cell-based, human
MCF-7 [3] = assay: Annexin V-FITC/PI dual staining apoptosis assay, MCF-7; assay type: cell-based, human
MCF-10A = assay: MTT cytotoxicity assay, nonmalignant MCF-10A; details: read-out: MCF-10A IC50; MTT, nonmalignant MCF-10A;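 also: MTT assay with absorbance read at 570 nm after 48 h exposure of cells to serial compound concentrations at 37 °C, testing selectivity against nonmalignant versus cancer cells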
Bax = Bax level (ELISA) in treated cells; assay type: cell-based, human
MDA-MB-231 [4] = assay: MTT cytotoxicity assay, MDA-MB-231; details: for IC50: Homo sapiens; for % viability: MDA
Caspase-9 = Caspase-9 level (ELISA) in treated cells; assay type: cell-based, human
MDA-MB-231 [5] = assay: Annexin V-FITC/PI dual staining apoptosis assay, MDA-MB-231; assay type: cell-based, human; details: for % Apoptosis Early / % Apoptosis Late / % Apoptosis Total / % Necrosis: MDA-MB-231
MDA-MB-231 [6] = assay: DNA flow cytometric cell cycle analysis, MDA-MB-231; assay type: cell-based, human; details: for cell cycle arrest at S phase / increase of apoptotic cells in pre-G1 phase: MDA-MB-231, compared to control
[7] = MCF7, read-out: cytotoxicity_IC50 mcf7
[8] = MCF-7, compared to untreated control
[9] = MDA-MB-231, read-out: MDA-MBA-231 IC50
[10] = MDA-MB-231, read-out: cytotoxicity_IC50 MDA
[11] = EGFR IC50, lab report 01-09-2021, 04 compounds, reference Erlotinib

Sequence of EGFR (P00533 25-1210): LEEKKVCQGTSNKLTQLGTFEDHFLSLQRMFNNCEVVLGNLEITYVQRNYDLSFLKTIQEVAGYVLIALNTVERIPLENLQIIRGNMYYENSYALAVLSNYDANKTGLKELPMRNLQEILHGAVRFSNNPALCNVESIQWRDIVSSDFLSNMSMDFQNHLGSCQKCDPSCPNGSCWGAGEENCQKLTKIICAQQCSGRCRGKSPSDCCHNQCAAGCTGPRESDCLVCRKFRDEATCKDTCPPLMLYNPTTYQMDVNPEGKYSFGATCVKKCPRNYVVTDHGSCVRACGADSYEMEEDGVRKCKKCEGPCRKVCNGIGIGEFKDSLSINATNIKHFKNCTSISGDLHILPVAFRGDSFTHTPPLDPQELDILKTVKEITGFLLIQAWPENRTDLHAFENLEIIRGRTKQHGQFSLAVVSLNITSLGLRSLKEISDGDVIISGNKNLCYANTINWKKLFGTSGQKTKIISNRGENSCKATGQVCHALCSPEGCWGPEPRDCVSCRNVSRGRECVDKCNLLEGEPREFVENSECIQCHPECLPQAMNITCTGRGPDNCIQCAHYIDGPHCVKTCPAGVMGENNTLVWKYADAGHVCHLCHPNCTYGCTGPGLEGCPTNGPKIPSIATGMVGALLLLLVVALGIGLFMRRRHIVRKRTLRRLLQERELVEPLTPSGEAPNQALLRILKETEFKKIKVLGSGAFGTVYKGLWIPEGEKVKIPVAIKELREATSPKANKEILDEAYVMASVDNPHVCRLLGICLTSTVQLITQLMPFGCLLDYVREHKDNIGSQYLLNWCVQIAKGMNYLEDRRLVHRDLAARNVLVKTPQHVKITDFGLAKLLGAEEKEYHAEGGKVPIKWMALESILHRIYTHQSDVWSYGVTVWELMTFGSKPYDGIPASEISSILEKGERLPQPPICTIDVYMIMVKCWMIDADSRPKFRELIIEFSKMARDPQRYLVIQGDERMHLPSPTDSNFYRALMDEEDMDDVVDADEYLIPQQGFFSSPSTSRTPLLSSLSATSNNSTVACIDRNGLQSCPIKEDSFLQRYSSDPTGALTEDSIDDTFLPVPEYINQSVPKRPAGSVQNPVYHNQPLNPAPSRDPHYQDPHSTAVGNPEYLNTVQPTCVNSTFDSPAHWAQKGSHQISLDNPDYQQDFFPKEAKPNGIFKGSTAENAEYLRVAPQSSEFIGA

IC50 (EGFR; EGFR IC50, lab report 01-11-2021, 10 compounds): 1.1 µM
IC50 (EGFR; EGFR inhibition IC50): 1.1 ± 0.066 µM
EGFR %inh (EGFR; conc 10 (unit not given), lab report 01-11-2021): 83%
Percentage above Reference IC50 (potency relative to erlotinib) (EGFR; reference Erlotinib): 7.636%
IC50 at 48 h (in vitro): 35.8 ± 1.74 µg/mL (≈ 79.8 µM)
SMILES: O=C(COc1ccc2c(COC(=O)c3ccccc3)cc(=O)oc2c1)c1ccc(Cl)cc1 [Compound 8, {7-[2-(4-Chlorophenyl)-2-oxoethoxy]-2-oxo-2H-chromen-4-yl}methyl benzoate]
Bcl-2 Conc (Bcl-2; MCF-7 cells): 3.291±0.36^a ng/ml
IC50 (MCF-7 [1]; MCF7, read-out: MCF-7 IC50): 5.8 ± 0.16 µM
IC50 (MCF-7 [1]; [7]): 2.62 ± 0.16 µg/mL
% viability (MCF-7 [1]; MCF7, 0.4ug): 61.556%
% viability (MCF-7 [1]; MCF7, 1.6ug): 54.284%
% viability (MCF-7 [1]; MCF7, 6.3ug): 43.461%
% viability (MCF-7 [1]; MCF7, 25ug): 36.189%
% viability (MCF-7 [1]; MCF7, 100ug): 27.3957%
viability at 48 h, 0.4 ug (in vitro): 84.7%
viability at 48 h, 1.6 ug (in vitro): 69.5%
viability at 48 h, 6.25 ug (in vitro): 63.2%
viability at 48 h, 25 ug (in vitro): 51.8%
viability at 48 h, 100 ug (in vitro): 43.6%
Comment (cell cycle phase of growth arrest) (MCF-7 [2]; MCF7): cell growth arrest@ G1/S
DNA content %G0-G1 (MCF-7 [2]; MCF7): 55.83%
DNA content %Pre-G1 (MCF-7 [2]; MCF7): 31.19%
DNA content %S (MCF-7 [2]; MCF7): 39.85%
%G0-G1 (MCF-7 [2]; MCF-7, IC50 concentration): 55.83^c ^ACD %
%Pre-G1 (MCF-7 [2]; MCF-7, IC50 concentration): 31.19^ae ^AB %
%S (MCF-7 [2]; MCF-7, IC50 concentration): 39.85 ^CE %
arrest in S phase (MCF-7 [2]; [8]): 1.33 folds
increase of apoptotic cells in pre-G1 phase (MCF-7 [2]; [8]): 18.67 folds
Apoptosis Late (MCF-7 [3]; MCF7): 19.66
Apoptosis Total (MCF-7 [3]; MCF7): 31.19
% Apoptosis Early (MCF-7 [3]; MCF-7): 4.94^abcA %
% Apoptosis Late (MCF-7 [3]; MCF-7): 19.66^acA %
% Apoptosis Total (MCF-7 [3]; MCF-7): 31.19% and 31.19^abc %
% Necrosis (MCF-7 [3]; MCF-7): 6.59%
IC50 (MCF-10A): 79.9 ± 1.74 µM
Bax Conc (Bax; MCF-7 cells): 0.164±0.0056^acd ng/ml
IC50 (MDA-MB-231 [4]; [9]): 27.5 ± 0.67 µM
IC50 (MDA-MB-231 [4]; [10]): 12.3 ± 0.67 µg/mL
Caspase-9 Conc. (Caspase-9; MCF-7 cells): 30.39±2.56^abc ng/ml

SMILES: CC(=O)Oc1ccc2c(COC(=O)c3ccc(Cl)cc3)cc(=O)oc2c1 [Compound 14, (7-Acetoxy-2-oxo-2H-chromen-4-yl)methyl 4-chlorobenzoate]
Bcl-2 Conc (Bcl-2; MDA-MB-231 cells): 2.984±0.12^gh ng/ml
Bcl-2 FLD (fold versus control) (Bcl-2; MDA-MB-231 cells): 0.329 folds
IC50 (EGFR; [11]): 2.44 µM
IC50 (EGFR; EGFR inhibition IC50): 2.44 ± 0.051 µM
inhibition at 10 pg/mL (EGFR): 18%
inhibition at 0.0001 µg/mL (EGFR): 24%
inhibition at 0.001 µg/mL (EGFR): 44%
inhibition at 0.01 µg/mL (EGFR): 78%
Percentage above Reference IC50 (potency relative to erlotinib) (EGFR; reference Erlotinib): 5.942%
IC50 (MCF-7 [1]; MCF7, read-out: MCF-7 IC50): 285 ± 6.41 µM
IC50 (MCF-7 [1]; [7]): 106 ± 6.41 µg/mL
% viability (MCF-7 [1]; MCF7, 0.4ug): 88.083%
% viability (MCF-7 [1]; MCF7, 1.6ug): 77.238%
% viability (MCF-7 [1]; MCF7, 6.3ug): 66.961%
% viability (MCF-7 [1]; MCF7, 25ug): 60.34%
% viability (MCF-7 [1]; MCF7, 100ug): 50.7566%
IC50 at 48 h (in vitro): 97.9 ± 4.77 µg/mL (≈ 263 µM)
viability at 48 h, 0.4 ug (in vitro): 85.6%
viability at 48 h, 1.6 ug (in vitro): 77.6%
viability at 48 h, 6.25 ug (in vitro): 67.2%
viability at 48 h, 25 ug (in vitro): 59.5%
viability at 48 h, 100 ug (in vitro): 49.6%
% Apoptosis Early (MDA-MB-231 [5]): 23.61^ilmn %
% Apoptosis Late (MDA-MB-231 [5]): 13.22^hik %
% Apoptosis Total (MDA-MB-231 [5]): 41.02% and 41.02^gh %
% Necrosis (MDA-MB-231 [5]): 4.19%
IC50 (MCF-10A): 263 ± 4.77 µM
Bax Conc (Bax; MDA-MB-231 cells): 0.292±0.0106^ghi ng/ml
Bax FLD (fold versus control) (Bax; MDA-MB-231 cells): 4.9 folds
selectivity against MDA-MB-231 than MCF-7 (MDA-MB-231 [4]): 150 times
IC50 (MDA-MB-231 [4]; [9]): 1.9 ± 0.03 µM
IC50 (MDA-MB-231 [4]; [10]): 0.64 ± 0.03 µg/mL
% viability (MDA-MB-231 [4]; 0.4ug (log conc. -0.41)): 53.505%
% viability (MDA-MB-231 [4]; 1.6ug (log conc. 0.19)): 43.354%
% viability (MDA-MB-231 [4]; 6.25ug (log conc. 0.8)): 34.773%
% viability (MDA-MB-231 [4]; 25ug (log conc. 1.4)): 26.136%
% viability (MDA-MB-231 [4]; 100ug (log conc. 2)): 15.4795%
Caspase-9 Conc. (Caspase-9; MDA-MB-231 cells): 18.97±0.62^ghi ng/ml
Caspase-9 FLD (fold versus control) (Caspase-9; MDA-MB-231 cells): 4.37 folds
%G0-G1 (MDA-MB-231 [6]; MDA-MB-231, IC50 concentration): 54.69^ikBD %
%G2/M (MDA-MB-231 [6]; MDA-MB-231, IC50 concentration): 7.09^dACDE %
%Pre-G1 (MDA-MB-231 [6]; MDA-MB-231, IC50 concentration): 41.02^iklmC %
%S (MDA-MB-231 [6]; MDA-MB-231, IC50 concentration): 38.22^ABE %
cell cycle arrest at S phase (MDA-MB-231 [6]): 1.38 folds
increase of apoptotic cells in pre-G1 phase (MDA-MB-231 [6]): 19.9 folds

IC50 (EGFR; [11]): 0.177 µM
IC50 (EGFR; EGFR inhibition IC50): 0.177 ± 0.0018 µM
inhibition at 10 pg/mL (EGFR): 32%
inhibition at 0.0001 µg/mL (EGFR): 50%
inhibition at 0.001 µg/mL (EGFR): 73%
inhibition at 0.01 µg/mL (EGFR): 88%
Percentage above Reference IC50 (potency relative to erlotinib) (EGFR; reference Erlotinib): 81.92%
IC50 at 48 h (in vitro): 34.5 ± 1.68 µg/mL (≈ 72 µM)
SMILES: COc1ccccc1C(=O)OCc1cc(=O)oc2cc(OCC(=O)c3ccc(Cl)cc3)ccc12 [Compound 12, {7-[2-(4-Chlorophenyl)-2-oxoethoxy]-2-oxo-2H-chromen-4-yl}methyl 2-methoxybenzoate]
Bcl-2 Conc (Bcl-2; MDA-MB-231 cells): 2.934±0.154^be ng/ml
IC50 (MCF-7 [1]; MCF7, read-out: MCF-7 IC50): 13.2 ± 0.38 µM
IC50 (MCF-7 [1]; [7]): 6.33 ± 0.38 µg/mL
% viability (MCF-7 [1]; MCF7, 0.4ug): 65.22%
% viability (MCF-7 [1]; MCF7, 1.6ug): 57.537%
% viability (MCF-7 [1]; MCF7, 6.3ug): 50.147%
% viability (MCF-7 [1]; MCF7, 25ug): 44.457%
% viability (MCF-7 [1]; MCF7, 100ug): 33.0205%
viability at 48 h, 0.4 ug (in vitro): 81.4%
viability at 48 h, 1.6 ug (in vitro): 75.8%
viability at 48 h, 6.25 ug (in vitro): 62.5%
viability at 48 h, 25 ug (in vitro): 55%
viability at 48 h, 100 ug (in vitro): 39.6%
Apoptosis Early (MDA-MB-231 [5]; MDA): 16.75
Apoptosis Late (MDA-MB-231 [5]; MDA): 23.02
Apoptosis Total (MDA-MB-231 [5]; MDA): 46.28
Necrosis (MDA-MB-231 [5]; MDA): 6.51
% Apoptosis Early (MDA-MB-231 [5]): 16.75^beg %
% Apoptosis Late (MDA-MB-231 [5]): 23.02^eg %
% Apoptosis Total (MDA-MB-231 [5]): 46.28% and 46.28^be %
% Necrosis (MDA-MB-231 [5]): 6.51%
IC50 (MCF-10A): 72.1 ± 1.68 µM
Bax Conc (Bax; MDA-MB-231 cells): 0.36±0.0118^cef ng/ml
IC50 (MDA-MB-231 [4]; [9]): 3.5 ± 0.09 µM
IC50 (MDA-MB-231 [4]; [10]): 1.71 ± 0.09 µg/mL
% viability (MDA-MB-231 [4]; 0.4ug (log conc. -0.41)): 56.517%
% viability (MDA-MB-231 [4]; 1.6ug (log conc. 0.19)): 51.229%
% viability (MDA-MB-231 [4]; 6.25ug (log conc. 0.8)): 44.231%
% viability (MDA-MB-231 [4]; 25ug (log conc. 1.4)): 36.538%
% viability (MDA-MB-231 [4]; 100ug (log conc. 2)): 26.8697%
Caspase-9 Conc. (Caspase-9; MDA-MB-231 cells): 19.16±0.41^df ng/ml
Comment (cell cycle phase of growth arrest) (MDA-MB-231 [6]; MDA): cell growth arrest@ G1/S
DNA content %G0-G1 (MDA-MB-231 [6]; MDA): 63.58%
DNA content %Pre-G1 (MDA-MB-231 [6]; MDA): 46.28%
DNA content %S (MDA-MB-231 [6]; MDA): 29.97%
%G0-G1 (MDA-MB-231 [6]; MDA-MB-231, IC50 concentration): 63.58^abc ^ADE %
%Pre-G1 (MDA-MB-231 [6]; MDA-MB-231, IC50 concentration): 46.28^cdg ^ABC %
%S (MDA-MB-231 [6]; MDA-MB-231, IC50 concentration): 29.97 ^BDF %
cell cycle arrest at S phase (MDA-MB-231 [6]): 1.08 folds
increase of apoptotic cells in pre-G1 phase (MDA-MB-231 [6]): 22.46 folds
